Measurements taken from patent US11345700B2, “Methods of preparing inhibitors of influenza viruses replication” (priority 2013, dated 2022).
Read-outs that look alike come from different tables or passages of the source.

Columns and labels:
[1] = test system: Influenza A/California/04/2009 (pndH1N1) virus; assay type: in vivo, BALB/c mice
influenza virus = assay type: in vivo, mice
[2] = test system: Influenza A/Victoria/3/75 (H3N2) virus; assay type: in vivo, BALB/c mice
influenza B virus = assay: Antiviral activity in MDCK cells measured by ATP levels (CellTiter-Glo), influenza B; assay type: cell-based; details: read-out: Cell Protection Assay EC50 ± SD
[3] = test system: Influenza A/Vietnam/1203/2004 (H5N1) virus; assay type: in vivo, BALB/c mice; details: 10 mg/kg p.o. twice a day for 10 days; Treatment (+48 h)
[4] = test system: influenza A/Wisconsin/67/2005 (H3N2) challenge strain virus; assay: Human influenza challenge: nasal influenza shedding by qRT-PCR; assay type: in vivo, healthy volunteers (humans)
Procedure: (§1) Subjects underwent thrice daily nasal swabs, and kept thrice daily score cards for clinical symptoms from Days 1-7, and were discharged from the facility on Day 8, with safety follow-up at approximately Day 28. Nasal swabs were assayed for influenza virus in cell culture (primary analysis) and by qRT-PCR (secondary analysis).

[5] = test system: influenza A/Wisconsin/67/2005 (H3N2) challenge strain virus; assay: Human influenza challenge: clinical and influenza-like symptom scores; assay type: in vivo, healthy volunteers (humans)
Procedure: as §1
Subjects recorded clinical symptoms three times a day in diaries. An AUC of clinical and influenza-like symptom scores from Day 1 through Day 7 was calculated.

influenza A virus = assay: Mouse influenza A model: prophylactic dose response and delayed treatment, survival and body weight loss; assay type: in vivo, mice
Source text: The prophylactic dose response of Compound (1) was investigated in the mouse influenza A model. […] All of the mice that received vehicle alone succumbed to the infection by study day 9 and had lost, on average, ˜32% of their body weight (BW).
All vehicle controls succumbed to disease by study days 8 or 9.

[6] = 1 mg/kg p.o. twice a day for 10 days starting 2 hours prior to virus exposure
[7] = 3 mg/kg p.o. twice a day for 10 days starting 2 hours prior to virus exposure
[8] = 10 mg/kg p.o. twice a day for 10 days starting 2 hours prior to virus exposure
[9] = Pooled Compound (1) dose groups (N = 52)
[10] = treatment start +24 h relative to infection, 1 mg/kg BID
[11] = treatment start +24 h relative to infection, 3 mg/kg BID
[12] = treatment start +24 h relative to infection, 10 mg/kg BID
[13] = treatment start +48 h relative to infection, 1 mg/kg BID
[14] = treatment start +48 h relative to infection, 3 mg/kg BID
[15] = treatment start +48 h relative to infection, 10 mg/kg BID
[16] = treatment start +72 h relative to infection, 1 mg/kg BID
[17] = treatment start +72 h relative to infection, 3 mg/kg BID
[18] = treatment start +72 h relative to infection, 10 mg/kg BID
[19] = treatment start +96 h relative to infection, 3 mg/kg BID
[20] = treatment start +96 h relative to infection, 10 mg/kg BID
[21] = treatment start +120 h relative to infection, 3 mg/kg BID
[22] = treatment start +120 h relative to infection, 10 mg/kg BID
[23] = treatment start −2 h relative to infection, 0.1 mg/kg BID
[24] = treatment start −2 h relative to infection, 0.3 mg/kg BID
[25] = treatment start −2 h relative to infection, 1 mg/kg BID
[26] = treatment start −2 h relative to infection, 3 mg/kg BID
[27] = treatment start −2 h relative to infection, 10 mg/kg BID

Q: What does the source list for `O=C(O)[C@H]1[C@H]2CC[C@H](CC2)[C@@H]1Nc1nc(-c2c[nH]c3ncc(F)cc23)ncc1F` [Compound (1)]?
A: Mean Lung Parameters (Day 6): Score (hemorrhage score 0-4) [1, 6]: 0.6; Mean Lung Parameters (Day 6): Virus Titer [1, 6]: 5.5 Log10 CCID50/g; Mean Lung Parameters (Day 6): Weight [1, 6]: 246 mg; Mean Lung Parameters (Day 6): Score (hemorrhage score 0-4) [1, 7]: 0.0; Mean Lung Parameters (Day 6): Virus Titer [1, 7]: 3.1 Log10 CCID50/g; Mean Lung Parameters (Day 6): Weight [1, 7]: 123 mg; Mean Lung Parameters (Day 6): Score (hemorrhage score 0-4) [1, 8]: 0.2; Mean Lung Parameters (Day 6): Virus Titer [1, 8]: <2.6^d*** Log10 CCID50/g; Mean Lung Parameters (Day 6): Weight [1, 8]: 132 mg; half maximal reduction in lung titers (influenza virus; mice infected 24 h, then dosed for 24 h (q6 h, q12 h, q24 h)): 2-3 log; serum-shifted EC99 (influenza virus; plasma concentration near which half maximal reduction in lung titers occurs): 100 ng/mL; MDD ± SD (mean day of death of mice that died on or before day 21) [2, 6]: 9.8; Mean Lung Parameters (Day 6): Score (hemorrhage score 0-4) [2, 6]: 3.2; Mean Lung Parameters (Day 6): Virus Titer [2, 6]: 7.3 Log10 CCID50/g; Mean Lung Parameters (Day 6): Weight [2, 6]: 274 mg; Survivors/Total [2, 6]: 4/10; Mean Lung Parameters (Day 6): Score (hemorrhage score 0-4) [2, 7]: 3.3; Mean Lung Parameters (Day 6): Virus Titer [2, 7]: 7.2 Log10 CCID50/g; Mean Lung Parameters (Day 6): Weight [2, 7]: 260 mg; Mean Lung Parameters (Day 6): Score (hemorrhage score 0-4) [2, 8]: 0.1; Mean Lung Parameters (Day 6): Virus Titer [2, 8]: 6.1 Log10 CCID50/g; Mean Lung Parameters (Day 6): Weight [2, 8]: 164 mg; EC50 (influenza B virus; B/Russia/69): > 10 nM; EC50 (influenza B virus; Influenza B virus, MDCK, B/Lee/40): > 10 nM; MDD ± SD (mean day of death of mice that died on or before day 21) [3]: >21; Mean Lung Parameters (Day 6): Virus Titer [3]: 3.75 ± 0.94 Log10 CCID50/g; Survivors/Total [3]: 10/10; Viral Sheeding by qRT-PCR AUC, median ([4]; 100 mg QD (N = 12)): 6.05 log10 copies/mL*Day; Viral Sheeding by qRT-PCR Duration, median ([4]; 100 mg QD (N = 12)): 0.96 days; Viral Sheeding by qRT-PCR Peak, mean ([4]; 100 mg QD (N = 12)): 4.36 log10 TCID50/mL; Viral Sheeding by qRT-PCR AUC, median ([4]; 400 mg QD (N = 12)): 4.90 log10 copies/mL*Day; Viral Sheeding by qRT-PCR Duration, median ([4]; 400 mg QD (N = 12)): 1.36 days; Viral Sheeding by qRT-PCR Peak, mean ([4]; 400 mg QD (N = 12)): 3.90 log10 TCID50/mL; Viral Sheeding by qRT-PCR AUC, median ([4]; 900/600 mg (N = 14)): 10.65 log10 copies/mL*Day; Viral Sheeding by qRT-PCR Duration, median ([4]; 900/600 mg (N = 14)): 2.39 days; Viral Sheeding by qRT-PCR Peak, mean ([4]; 900/600 mg (N = 14)): 5.08 log10 TCID50/mL; Viral Sheeding by qRT-PCR AUC, median ([4]; 1200/600 mg (N = 14)): 0.45 log10 copies/mL*Day; Viral Sheeding by qRT-PCR Duration, median ([4]; 1200/600 mg (N = 14)): 0.00 days; Viral Sheeding by qRT-PCR Peak, mean ([4]; 1200/600 mg (N = 14)): 2.37 log10 TCID50/mL; Viral Sheeding by qRT-PCR AUC, median [4, 9]: 3.45 log10 copies/mL*Day; Viral Sheeding by qRT-PCR Duration, median [4, 9]: 0.71 days; Viral Sheeding by qRT-PCR Peak, mean [4, 9]: 3.91 log10 TCID50/mL; Composite Clinical Symptom AUC, median ([5]; 100 mg QD (N = 12)): 1.85 Grade*Day; Composite Clinical Symptom Duration, median ([5]; 100 mg QD (N = 12)): 3.21 days; Composite Clinical Symptom Peak, mean ([5]; 100 mg QD (N = 12)): 3.17 Grade; Influenza like Symptom AUC, median ([5]; 100 mg QD (N = 12)): 1.85 Grade*Day; Influenza like Symptom Duration, median ([5]; 100 mg QD (N = 12)): 3.21 days; Influenza like Symptom Peak, mean ([5]; 100 mg QD (N = 12)): 2.75 Grade; Composite Clinical Symptom AUC, median ([5]; 400 mg QD (N = 12)): 4.70 Grade*Day; Composite Clinical Symptom Duration, median ([5]; 400 mg QD (N = 12)): 3.34 days; Composite Clinical Symptom Peak, mean ([5]; 400 mg QD (N = 12)): 2.83 Grade; Influenza like Symptom AUC, median ([5]; 400 mg QD (N = 12)): 3.80 Grade*Day; Influenza like Symptom Duration, median ([5]; 400 mg QD (N = 12)): 3.34 days; Influenza like Symptom Peak, mean ([5]; 400 mg QD (N = 12)): 2.42 Grade; Composite Clinical Symptom AUC, median ([5]; 900/600 mg (N = 14)): 1.75 Grade*Day; Composite Clinical Symptom Duration, median ([5]; 900/600 mg (N = 14)): 2.69 days; Composite Clinical Symptom Peak, mean ([5]; 900/600 mg (N = 14)): 3.71 Grade; Influenza like Symptom AUC, median ([5]; 900/600 mg (N = 14)): 1.75 Grade*Day; Influenza like Symptom Duration, median ([5]; 900/600 mg (N = 14)): 2.69 days; Influenza like Symptom Peak, mean ([5]; 900/600 mg (N = 14)): 3.21 Grade; Composite Clinical Symptom AUC, median ([5]; 1200/600 mg (N = 14)): 1.95 Grade*Day; Composite Clinical Symptom Duration, median ([5]; 1200/600 mg (N = 14)): 1.88 days; Composite Clinical Symptom Peak, mean ([5]; 1200/600 mg (N = 14)): 1.50 Grade; Influenza like Symptom AUC, median ([5]; 1200/600 mg (N = 14)): 1.75 Grade*Day; Influenza like Symptom Duration, median ([5]; 1200/600 mg (N = 14)): 1.88 days; Influenza like Symptom Peak, mean ([5]; 1200/600 mg (N = 14)): 1.36 Grade; Composite Clinical Symptom AUC, median [5, 9]: 2.15 Grade*Day; Composite Clinical Symptom Duration, median [5, 9]: 2.34 days; Composite Clinical Symptom Peak, mean [5, 9]: 2.79 Grade; Influenza like Symptom AUC, median [5, 9]: 2.05 Grade*Day; Influenza like Symptom Duration, median [5, 9]: 2.34 days; Influenza like Symptom Peak, mean [5, 9]: 2.42 Grade; survival (mice) (influenza A virus; 0.3 mg/kg BID for 10 days, initiated 2 h prior to infection): 2/8; Percent Body Weight Loss on Study Day 8 (influenza A virus; [10]): −23.4%; Percent Survival (influenza A virus; [10]): 100%; Percent Body Weight Loss on Study Day 8 (influenza A virus; [11]): −14.2%; Percent Survival (influenza A virus; [11]): 100%; Percent Body Weight Loss on Study Day 8 (influenza A virus; [12]): −6.2%; Percent Survival (influenza A virus; [12]): 100%; Percent Body Weight Loss on Study Day 8 (influenza A virus; [13]): −22.5%; Percent Survival (influenza A virus; [13]): 100%; Percent Body Weight Loss on Study Day 8 (influenza A virus; [14]): −10.9%; Percent Survival (influenza A virus; [14]): 100%; Percent Body Weight Loss on Study Day 8 (influenza A virus; [15]): −7.1%; Percent Survival (influenza A virus; [15]): 100%; Percent Body Weight Loss on Study Day 8 (influenza A virus; [16]): −29.4%; Percent Survival (influenza A virus; [16]): 100%; Percent Body Weight Loss on Study Day 8 (influenza A virus; [17]): −23.2%; Percent Survival (influenza A virus; [17]): 100%; Percent Body Weight Loss on Study Day 8 (influenza A virus; [18]): −17.4%; Percent Survival (influenza A virus; [18]): 100%; Percent Body Weight Loss on Study Day 8 (influenza A virus; [19]): −27.3%; Percent Survival (influenza A virus; [19]): 100%; Percent Body Weight Loss on Study Day 8 (influenza A virus; [20]): −25.5%; Percent Survival (influenza A virus; [20]): 100%; Percent Body Weight Loss on Study Day 8 (influenza A virus; [21]): −32.6%; Percent Survival (influenza A virus; [21]): 12.5%; Percent Body Weight Loss on Study Day 8 (influenza A virus; [22]): −34.4%; Percent Survival (influenza A virus; [22]): 37.5%; Percent Body Weight Loss on Study Day 8 (influenza A virus; [23]): −31.9%; Percent Survival (influenza A virus; [23]): 0%; Percent Body Weight Loss on Study Day 8 (influenza A virus; [24]): −30.4%; Percent Survival (influenza A virus; [24]): 25%; Percent Body Weight Loss on Study Day 8 (influenza A virus; [25]): −16.8%; Percent Survival (influenza A virus; [25]): 100%; Percent Body Weight Loss on Study Day 8 (influenza A virus; [26]): −8.7%; Percent Survival (influenza A virus; [26]): 100%; Percent Body Weight Loss on Study Day 8 (influenza A virus; [27]): −2.8%; Percent Survival (influenza A virus; [27]): 100%
